Source: ChEMBL document CHEMBL1255296, “Effect of 14-membered-ring macrolides on production of interleukin-8 mediated by protease-activated receptor 2 in human keratinocytes” (Antimicrob Agents Chemother, 2008)
Activity calls are given as the source filed them. The calls are words filed in the database; no cut-off is given here.

Legend:
[1] = target: Proteinase-activated receptor 2 (Homo sapiens) (UniProt P55085); experiment: Inhibition of PAR2-mediated IL1-beta and SLIGKV-NH2-induced interleukin-8 production in normal human epidermal keratinocytes at 10 uM by ELISA
Sequence of Proteinase-activated receptor 2 (Homo sapiens) (P55085 whole entry): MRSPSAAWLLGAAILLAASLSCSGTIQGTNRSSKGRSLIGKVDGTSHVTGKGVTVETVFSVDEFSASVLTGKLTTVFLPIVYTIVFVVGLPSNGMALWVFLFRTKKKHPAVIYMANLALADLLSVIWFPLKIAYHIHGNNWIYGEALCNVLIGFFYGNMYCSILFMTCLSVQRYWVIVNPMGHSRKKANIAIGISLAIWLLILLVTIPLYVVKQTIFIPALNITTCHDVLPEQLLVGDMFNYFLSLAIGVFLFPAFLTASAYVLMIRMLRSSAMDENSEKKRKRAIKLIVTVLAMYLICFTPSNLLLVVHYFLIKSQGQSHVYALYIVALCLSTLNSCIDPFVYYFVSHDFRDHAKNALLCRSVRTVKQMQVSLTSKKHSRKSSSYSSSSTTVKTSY

[2] = target: Proteinase-activated receptor 2 (Homo sapiens) (UniProt P55085); experiment: Inhibition of PAR2-mediated SLIGKV-NH2-induced interleukin-8 production in normal human epidermal keratinocytes at 10 uM preincubated for 24 hrs by ELISA
[3] = target: Proteinase-activated receptor 2 (Homo sapiens) (UniProt P55085); experiment: Inhibition of PAR2-mediated SLIGKV-NH2-induced interleukin-8 production in normal human epidermal keratinocytes at 100 uM preincubated for 24 hrs by ELISA
[4] = Toxicity in normal human epidermal keratinocytes assessed as effect on cell viability at 10 uM after 72 hrs by colorimetric assay; type: cell-based; details: keratinocyte
[5] = Toxicity in normal human epidermal keratinocytes assessed as effect on cell viability at 100 uM after 72 hrs by colorimetric assay; type: cell-based; details: keratinocyte
Keratinocyte [6] = experiment: Effect on PAR2 gene expression in normal human epidermal keratinocytes assessed as effect on cell viability at 10 uM after 72 hrs; type: functional, cell-based
Keratinocyte [7] = experiment: Effect on PAR2 gene expression in normal human epidermal keratinocytes assessed as effect on cell viability at 100 uM after 72 hrs; type: functional, cell-based
[8] = target: Proteinase-activated receptor 2 (Homo sapiens) (UniProt P55085); experiment: Inhibition of PAR2-mediated SLIGKV-NH2-induced interleukin-8 production in normal human epidermal keratinocytes preincubated for 24 hrs by ELISA
[9] = target: Proteinase-activated receptor 2 (Homo sapiens) (UniProt P55085); experiment: Inhibition of PAR2-mediated SLIGKV-NH2-induced interleukin-8 production in normal human epidermal keratinocytes up to 100 uM preincubated for 24 hrs by ELISA
[10] = target: Proteinase-activated receptor 2 (Homo sapiens) (UniProt P55085); experiment: Inhibition of PAR2-mediated SLIGKV-NH2-induced interleukin-8 production in normal human epidermal keratinocytes at 5 uM preincubated for 24 hrs by ELISA

Row | Compound | inhibition [1] | inhibition [2] | inhibition [3] | inhibition [8] | inhibition [9] | inhibition [10] | Activity [4] | Activity [5] | Activity (Keratinocyte [6]) | Activity (Keratinocyte [7])
1 | CC[C@H]1OC(=O)[C@H](C)[C@@H](O[C@H]2C[C@@](C)(OC)[C@@H](O)[C@H](C)O2)[C@H](C)[C@@H](O[C@@H]2O[C@H](C)C[C@H](N(C)C)[C@H]2O)[C@](C)(O)C[C@@H](C)/C(=N\OCOCCOC)[C@H](C)[C@@H](O)[C@]1(C)O [ROXITHROMYCIN] | Active | Active | Active |  |  |  | Non-toxic | Non-toxic | inactive | inactive
2 | CO[C@@H]1[C@@H](O[C@@H]2O[C@H](C)[C@@H](O[C@H]3C[C@@](C)(O)[C@@H](OC(=O)CC(C)C)[C@H](C)O3)[C@H](N(C)C)[C@H]2O)[C@@H](CC=O)C[C@@H](C)[C@@H](O)/C=C/C=C/C[C@@H](C)OC(=O)C[C@H]1OC(C)=O |  |  |  | inactive |  |  |  |  |  | 
3 | CC[C@H]1OC(=O)[C@H](C)[C@@H](O[C@H]2C[C@@](C)(OC)[C@@H](O)[C@H](C)O2)[C@H](C)[C@@H](O[C@@H]2O[C@H](C)C[C@H](N(C)C)[C@H]2O)[C@](C)(OC)C[C@@H](C)C(=O)[C@H](C)[C@@H](O)[C@]1(C)O [CLARITHROMYCIN] | Active |  |  |  | inactive |  | Non-toxic | Non-toxic | inactive | inactive

Further lines, with some results ahead:

Row | inhibition [1] | inhibition [2] | inhibition [3] | inhibition [8] | inhibition [9] | inhibition [10] | Compound | Activity [4] | Activity [5] | Activity (Keratinocyte [6]) | Activity (Keratinocyte [7])
4 |  |  |  | inactive |  |  | CO[C@H]1C[C@H](O[C@H]2[C@H](C)[C@@H](O[C@@H]3O[C@H](C)C[C@H](N(C)C)[C@H]3O)[C@@H](C)C[C@@]3(CO3)C(=O)[C@H](C)[C@@H](O)[C@@H](C)[C@@H](C)OC(=O)[C@@H]2C)O[C@@H](C)[C@@H]1O |  |  |  | 
5 |  |  |  | inactive |  |  | SPIRAMYCIN |  |  |  | 
6 | Active | Active | Active |  |  | Active | CC[C@H]1OC(=O)[C@H](C)[C@@H](O[C@H]2C[C@@](C)(OC)[C@@H](O)[C@H](C)O2)[C@H](C)[C@@H](O[C@@H]2O[C@H](C)C[C@H](N(C)C)[C@H]2O)[C@](C)(O)C[C@@H](C)C(=O)[C@H](C)[C@@H](O)[C@]1(C)O [ERYTHROMYCIN] | Non-toxic | Non-toxic | inactive | inactive
